The text below walks through data of US9839642B2, “Beta-tetrazolyl-propionic acids as metallo-beta-lactamase inhibitors” (priority 2014, dated 2017).

The subject of assay [1] is Serratia marcescens expressing IMP-1 (CL5741). Description: Antibiotic potentiation activity: synergistic concentration (MITC95) with imipenem, growth by OD600. In kind it is cell-based. Particulars: S. marcescens CL5741 (IMP-1), 95% inhibition of growth. The essentials:
(§1)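 MITC95 = lowest inhibitor concentration giving 95% growth inhibition, read by absorbance after 22–24 h at 35° C. Compound range 200 μM to 0.195 μM, imipenem fixed at 1 or 4 μg/ml, bacteria in 1.1×CAMHB from saline suspension diluted 1:100.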

The test system of assay [2] is Klebsiella pneumoniae expressing VIM-1 (IHMA599644). The description is as above. In kind it is cell-based. The following applies: K. pneumoniae IHMA599644 (VIM-1), 95% inhibition of growth. In short, it runs like this:
as §1

For assay [3], the system named is Escherichia coli expressing NDM-1 (CLB30016). Described as above. Particulars: E. coli CLB30016 (NDM-1), 95% inhibition of growth. In kind it is cell-based. The essentials:
as §1

For a further assay, the target named is IMP-1 (Serratia marcescens, UniProt P52699). As to the kind of experiment: Enzyme activity: determination of IC50, fluorescence assay with CCF2-FA substrate. In kind it is biochemical. Particulars: IMP-1 enzyme 2 pM, CCF2-FA 1.25 μM, 2 hours at 25° C.; read-out: IMP1 IC50. In short, it runs like this:
(§2)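 In pH 7 phosphate buffer (100 mM) with 10 μM ZnSO4 and 0.005% Tween-20, CCF2-FA substrate (1.25 μM final) was hydrolysed for 2 h at 25 °C by NDM-1, IMP-1 or VIM-1 at 1, 2 or 30 pM in the presence of inhibitor at 20–0.00063 μM. Emission 460 nm/excitation 405 nm; 4-parameter curve fit gave IC50.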

A further assay concerns the target NDM-1 (Klebsiella pneumoniae, UniProt C7C422). The assay is described as above. Particulars: NDM-1 enzyme 1 pM, CCF2-FA 1.25 μM, 2 hours at 25° C.; read-out: NDM1 IC50. In kind it is biochemical. In short, it runs like this:
as §2

The next assay has as its target VIM-1 (Pseudomonas aeruginosa, UniProt A0A0F7KYQ8). The description is as above. In kind it is biochemical. The following applies: VIM-1 enzyme 30 pM, CCF2-FA 1.25 μM, 2 hours at 25° C.; read-out: VIM1 IC50. In short, it runs like this:
as §2

Sequence of NDM-1 (C7C422 29-270, looked up, species assumed): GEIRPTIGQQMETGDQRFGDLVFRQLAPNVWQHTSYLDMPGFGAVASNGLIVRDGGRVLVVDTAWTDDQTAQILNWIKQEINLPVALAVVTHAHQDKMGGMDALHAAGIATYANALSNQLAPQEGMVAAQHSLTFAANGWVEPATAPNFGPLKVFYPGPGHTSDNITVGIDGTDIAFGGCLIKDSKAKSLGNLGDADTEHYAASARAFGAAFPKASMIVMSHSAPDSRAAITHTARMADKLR
Sequence of IMP-1 (P52699 19-246, looked up, species assumed): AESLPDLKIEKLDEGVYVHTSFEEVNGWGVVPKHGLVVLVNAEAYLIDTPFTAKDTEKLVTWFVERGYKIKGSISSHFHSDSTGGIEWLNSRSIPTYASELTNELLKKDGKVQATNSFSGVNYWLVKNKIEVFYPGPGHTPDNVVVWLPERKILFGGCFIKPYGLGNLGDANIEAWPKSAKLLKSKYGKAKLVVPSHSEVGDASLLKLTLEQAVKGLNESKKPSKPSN

With `CCC[C@H](C(=O)O)[C@H](Cc1cccc(-c2ccc(N)nc2)c1)c1nn[nH]n1` [Example 342, (2S)-2-[(1S)-2-[3-(6-aminopyridin-3-yl)phenyl]-1-(2H-tetrazol-5-yl)ethyl]pentanoic acid], the “IMP1 SM5741 MITC95” value in assay [1] was 3.1 µM. For the same compound, the “VIM1 KP599644 MITC95” value in assay [2] stood at 12.5 µM. In assay [3], the “NDM1 EC30016 MITC95” value is 6.2 µM. For the same compound, the figures for the IC50 on IMP-1, on NDM-1 and on VIM-1 were 170 nM, 4.7 nM and 1.1 nM, respectively.
`CCC[C@H](C(=O)O)[C@H](Cc1cccc(-c2ccc(NS(C)(=O)=O)cc2)c1)c1nn[nH]n1` [Example 343, (2S)-2-[(1S)-2-{4′-[(methylsulfonyl)amino]biphenyl-3-yl}-1-(2H-tetrazol-5-yl)ethyl]pentanoic acid]: the “IMP1 SM5741 MITC95” value in assay [1] was 0.39 µM. Further, the “VIM1 KP599644 MITC95” value in assay [2] was determined as 18.8 µM. Further, in assay [3], the “NDM1 EC30016 MITC95” value was 25 µM. Also, the IC50 (in general, the concentration needed to halve the response being measured) on IMP-1 came out at 22 nM; on NDM-1, 11 nM; at VIM-1, 2.4 nM.
`CCC[C@H](C(=O)O)[C@H](Cc1cccc(-c2ccc(C(=O)NC)cc2)c1)c1nn[nH]n1` [Example 344, (2S)-2-[(1S)-2-[4′-(methylcarbamoyl)biphenyl-3-yl]-1-(2H-tetrazol-5-yl)ethyl]pentanoic acid]: the “IMP1 SM5741 MITC95” value in assay [1] is 0.59 µM. For the same compound, the “VIM1 KP599644 MITC95” value in assay [2] came out at 50 µM. For the same compound, the “NDM1 EC30016 MITC95” value in assay [3] is 38 µM. In addition, the IC50 was 28 nM at IMP-1, 14 nM on NDM-1 and 1.7 nM at VIM-1.
As for `CCC[C@H](C(=O)O)[C@H](Cc1cccc(-c2cccc(C3CCCNC3)c2)c1)c1nn[nH]n1` (stereo partly drawn) [Example 345, (2S)-2-[(1S)-2-(3′-piperidin-3-ylbiphenyl-3-yl)-1-(2H-tetrazol-5-yl)ethyl]pentanoic acid], the “IMP1 SM5741 MITC95” value in assay [1] came to 6.2 µM. In addition, the “VIM1 KP599644 MITC95” value in assay [2] was 18.8 µM. Further, in assay [3], the “NDM1 EC30016 MITC95” value was found to be 25 µM. Further, the IC50 at IMP-1 is 270 nM; on NDM-1 it was 39 nM; on VIM-1, 1.7 nM.
As to `CCC[C@H](C(=O)O)[C@H](Cc1cccc(-c2ccc(N3CCOCC3)nc2)c1)c1nn[nH]n1` [Example 346, (2S)-2-[(1S)-2-[3-(6-morpholin-4-ylpyridin-3-yl)phenyl]-1-(2H-tetrazol-5-yl)ethyl]pentanoic acid], the “IMP1 SM5741 MITC95” value in assay [1] is 6.2 µM. For the same compound, the “VIM1 KP599644 MITC95” value in assay [2] came to 38 µM. In addition, in assay [3], the “NDM1 EC30016 MITC95” value was determined as 75 µM. The half-inhibitory concentration (IC50) was 320 nM at IMP-1, 21 nM at NDM-1 and 2.2 nM on VIM-1.
As to `CCC[C@H](C(=O)O)[C@H](Cc1cccc(-c2cncc(CN3CCCCC3)c2)c1)c1nn[nH]n1` [Example 347, (2S)-2-[(1S)-2-{3-[5-(piperidin-1-ylmethyl)pyridin-3-yl]phenyl}-1-(2H-tetrazol-5-yl)ethyl]pentanoic acid], the “IMP1 SM5741 MITC95” value in assay [1] worked out at 25 µM. The “VIM1 KP599644 MITC95” value in assay [2] came to 25 µM. The “NDM1 EC30016 MITC95” value in assay [3] was determined as 50 µM. Also, the figures for the concentration for half-maximal inhibition (IC50) on IMP-1, at NDM-1 and on VIM-1 were 1600 nM, 160 nM and 6.5 nM, respectively.
`CCC[C@H](C(=O)O)[C@H](Cc1cccc(-c2cccc(OC3CCNCC3)n2)c1)c1nn[nH]n1` [Example 348, (2S)-2-[(1S)-2-{3-[6-(piperidin-4-yloxy)pyridin-2-yl]phenyl}-1-(2H-tetrazol-5-yl)ethyl]pentanoic acid]: in assay [1], the “IMP1 SM5741 MITC95” value was 6.2 µM. Besides, the “VIM1 KP599644 MITC95” value in assay [2] turned out to be 18.8 µM. Further, the “NDM1 EC30016 MITC95” value in assay [3] was determined as 18.8 µM. Besides, the results for the 50% inhibitory concentration (IC50) on IMP-1, at NDM-1 and at VIM-1 were 540 nM, 22 nM and 2.2 nM, respectively.
Take `CCC[C@H](C(=O)O)[C@H](Cc1cccc(-c2ccnc(N)c2)c1)c1nn[nH]n1` [Example 349, (2S)-2-[(1S)-2-[3-(2-aminopyridin-4-yl)phenyl]-1-(2H-tetrazol-5-yl)ethyl]pentanoic acid]: the “IMP1 SM5741 MITC95” value in assay [1] was 3.9 µM. For the same compound, the “VIM1 KP599644 MITC95” value in assay [2] was 12.5 µM. Moreover, in assay [3], the “NDM1 EC30016 MITC95” value was 9.4 µM. Also, the IC50 at IMP-1 worked out at 140 nM; on NDM-1, 11 nM; at VIM-1, 1.3 nM.
Consider `CCC[C@H](C(=O)O)[C@H](Cc1cccc(-c2ccc(C3CCNCC3)cc2)c1)c1nn[nH]n1` [Example 350, (2S)-2-[(1S)-2-(4′-piperidin-4-ylbiphenyl-3-yl)-1-(2H-tetrazol-5-yl)ethyl]pentanoic acid], for which the “IMP1 SM5741 MITC95” value in assay [1] amounted to 6.2 µM. Besides, the “VIM1 KP599644 MITC95” value in assay [2] is 25 µM. Also, the “NDM1 EC30016 MITC95” value in assay [3] worked out at 25 µM. The results for the IC50 on IMP-1, on NDM-1 and on VIM-1 were 380 nM, 26 nM and 3 nM, respectively.
Turning to `CCC[C@H](C(=O)O)[C@H](Cc1cccc(-c2ccc(C(N)=O)cc2)c1)c1nn[nH]n1` [Example 351, (2S)-2-[(1)-2-(4′-carbamoylbiphenyl-3-yl)-1-(2H-tetrazol-5-yl)ethyl]pentanoic acid], the “IMP1 SM5741 MITC95” value in assay [1] was 0.59 µM. Moreover, in assay [2], the “VIM1 KP599644 MITC95” value was found to be 25 µM. For the same compound, in assay [3], the “NDM1 EC30016 MITC95” value came to 7.8 µM. In addition, the results for the IC50 at IMP-1, on NDM-1 and at VIM-1 were 24 nM, 0.78 nM and 1.6 nM, respectively.
For the compound `CCC[C@H](C(=O)O)[C@H](Cc1cccc(-c2cncc3ccccc23)c1)c1nn[nH]n1` [Example 352, (2S)-2-[(1S)-2-(3-isoquinolin-4-ylphenyl)-1-(2H-tetrazol-5-yl)ethyl]pentanoic acid], the “IMP1 SM5741 MITC95” value in assay [1] was determined as 0.39 µM. In addition, in assay [2], the “VIM1 KP599644 MITC95” value was 50 µM. Further, the “NDM1 EC30016 MITC95” value in assay [3] turned out to be 18.8 µM. The IC50 at IMP-1 amounted to 7.8 nM; at NDM-1, 1.7 nM; at VIM-1, 1.7 nM.
Turning to `CCC[C@H](C(=O)O)[C@H](Cc1cccc(-c2ccncc2)c1)c1nn[nH]n1` [Example 353, (2S)-2-[(1S)-2-(3-pyridin-4-ylphenyl)-1-(2H-tetrazol-5-yl)ethyl]pentanoic acid], the “IMP1 SM5741 MITC95” value in assay [1] was determined as 6.2 µM. Moreover, the “VIM1 KP599644 MITC95” value in assay [2] was 100 µM. Besides, the “NDM1 EC30016 MITC95” value in assay [3] was found to be 38 µM. In addition, the figures for the 50% inhibitory concentration (IC50) at IMP-1, at NDM-1 and on VIM-1 were 160 nM, 13 nM and 2.3 nM, respectively.
Take `CCC[C@H](C(=O)O)[C@H](Cc1cccc(-c2ccc3c(c2)CCC(N)C3)c1)c1nn[nH]n1` (stereo partly drawn) [Example 354, (2S)-2-[(1S)-2-[3-(6-amino-5,6,7,8-tetrahydronaphthalen-2-yl)phenyl]-1-(2H-tetrazol-5-yl)ethyl]pentanoic acid]: the “IMP1 SM5741 MITC95” value in assay [1] worked out at 4.7 µM. In addition, in assay [2], the “VIM1 KP599644 MITC95” value was determined as 9.4 µM. The “NDM1 EC30016 MITC95” value in assay [3] amounted to 9.4 µM. Besides, the IC50 at IMP-1 came out at 310 nM; on NDM-1, 13 nM; at VIM-1 it was 1.4 nM.
`CCC[C@H](C(=O)O)[C@H](Cc1cccc(-c2ccc(N3CCNCC3)nc2)c1)c1nn[nH]n1` [Example 355, (2S)-2-[(1S)-2-[3-(6-piperazin-1-ylpyridin-3-yl)phenyl]-1-(2H-tetrazol-5-yl)ethyl]pentanoic acid]: the “IMP1 SM5741 MITC95” value in assay [1] came out at 9.4 µM. Also, the “VIM1 KP599644 MITC95” value in assay [2] came out at 18.8 µM. Also, in assay [3], the “NDM1 EC30016 MITC95” value was found to be 12.5 µM. Also, the IC50 worked out at 550 nM on IMP-1, 21 nM on NDM-1 and 2.8 nM at VIM-1.
